Patent publication US20230365592A1 (Agios Pharmaceuticals, Inc., priority 2022, published 2023)
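Further: after compound treatment, cells received sepiapterin plus isotope-labelled Phenylalanine for 4 hours, then labelled Tyrosine in the medium was quantified, 10-point 2-fold dilution series run in duplicate.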

What follows are compounds tested against T1, human PAH with the R408W mutation (Homo sapiens, UniProt P00439, R408W) (assay: Cell Based Phenylalanine Flux Assay). Conditions: A375 cells expressing human R408W PAH; 24 hrs compound incubation; 13C-Tyrosine by LC-MS; average where tested multiple times; read-out: AC50.
T1 construct: expressed in transfected cells
T1 sequence (P00439 1-452 R408W): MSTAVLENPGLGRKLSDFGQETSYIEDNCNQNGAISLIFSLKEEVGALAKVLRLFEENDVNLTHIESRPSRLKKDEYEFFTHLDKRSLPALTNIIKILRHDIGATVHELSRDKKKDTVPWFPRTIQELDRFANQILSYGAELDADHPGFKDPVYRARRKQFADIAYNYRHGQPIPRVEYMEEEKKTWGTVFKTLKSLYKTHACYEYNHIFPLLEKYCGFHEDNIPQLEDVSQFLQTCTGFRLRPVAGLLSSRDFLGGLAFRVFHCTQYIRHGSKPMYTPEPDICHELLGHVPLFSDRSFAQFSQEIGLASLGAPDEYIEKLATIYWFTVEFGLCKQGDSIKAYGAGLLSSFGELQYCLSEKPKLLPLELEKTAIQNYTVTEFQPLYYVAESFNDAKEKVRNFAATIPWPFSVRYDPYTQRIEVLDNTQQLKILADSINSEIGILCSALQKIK
`O=C(c1cnn2ccccc12)N1CCc2[nH]cnc2[C@H]1c1cc2ccccn2n1` [Example 600, (S)-(4-(pyrazolo[1,5-a]pyridin-2-yl)-6,7-dihydro-1H-imidazo[4,5-c]pyridin-5(4H)-yl)(pyrazolo[1,5-a]pyridin-3-yl)methanone] was tested, and the AC50 was 500 to 1000 nM.
Work on `O=C(c1cnn2ccccc12)N1CCc2[nH]cnc2[C@@H]1c1cc2ccccn2n1` [Example 601, (R)-(4-(pyrazolo[1,5-a]pyridin-2-yl)-6,7-dihydro-1H-imidazo[4,5-c]pyridin-5(4H)-yl)(pyrazolo[1,5-a]pyridin-3-yl)methanone] yielded an AC50 of over 5000 nM.
`O=C(c1cncs1)N1CCc2[nH]cnc2[C@H]1c1cc2ccccn2n1` [Example 602, (S)-(4-(pyrazolo[1,5-a]pyridin-2-yl)-6,7-dihydro-1H-imidazo[4,5-c]pyridin-5(4H)-yl)(thiazol-5-yl)methanone] gave an AC50 of under 500 nM.
`O=C(c1cncs1)N1CCc2[nH]cnc2[C@@H]1c1cc2ccccn2n1` [Example 603, (R)-(4-(pyrazolo[1,5-a]pyridin-2-yl)-6,7-dihydro-1H-imidazo[4,5-c]pyridin-5(4H)-yl)(thiazol-5-yl)methanone] showed an AC50 of 1000 to 5000 nM.
Compound `O=C(c1nnc(-c2ccccn2)o1)N1CCc2[nH]cnc2[C@@H]1c1cc2ccccn2n1` [Example 604, (R)-(4-(pyrazolo[1,5-a]pyridin-2-yl)-6,7-dihydro-1H-imidazo[4,5-c]pyridin-5(4H)-yl)(5-(pyridin-2-yl)-1,3,4-oxadiazol-2-yl)methanone] has an AC50 of over 5000 nM.
For `O=C(c1nnc(-c2ccccn2)o1)N1CCc2[nH]cnc2[C@H]1c1cc2ccccn2n1` [Example 605, (S)-(4-(pyrazolo[1,5-a]pyridin-2-yl)-6,7-dihydro-1H-imidazo[4,5-c]pyridin-5(4H)-yl)(5-(pyridin-2-yl)-1,3,4-oxadiazol-2-yl)methanone], the AC50 was 500 to 1000 nM.
In the case of `Cc1ncoc1C(=O)N1CCc2[nH]cnc2[C@H]1c1cc2ccccn2n1` [Example 606, (S)-(4-methyloxazol-5-yl)(4-(pyrazolo[1,5-a]pyridin-2-yl)-6,7-dihydro-1H-imidazo[4,5-c]pyridin-5(4H)-yl)methanone], the AC50 is reported as under 500 nM.
`Cc1ncoc1C(=O)N1CCc2[nH]cnc2[C@@H]1c1cc2ccccn2n1` [Example 607, (R)-(4-methyloxazol-5-yl)(4-(pyrazolo[1,5-a]pyridin-2-yl)-6,7-dihydro-1H-imidazo[4,5-c]pyridin-5(4H)-yl)methanone] was tested, and the AC50 was over 5000 nM.
Work on `O=C(Cc1nc(C(F)(F)F)cs1)N1CCc2[nH]cnc2[C@H]1c1cc2ccccn2n1` [Example 608, (S)-1-(4-(pyrazolo[1,5-a]pyridin-2-yl)-6,7-dihydro-1H-imidazo[4,5-c]pyridin-5(4H)-yl)-2-(4-(trifluoromethyl)thiazol-2-yl)ethanone] yielded an AC50 of 1000 to 5000 nM.
`O=C(Cc1nc(C(F)(F)F)cs1)N1CCc2[nH]cnc2[C@@H]1c1cc2ccccn2n1` [Example 609, (R)-1-(4-(pyrazolo[1,5-a]pyridin-2-yl)-6,7-dihydro-1H-imidazo[4,5-c]pyridin-5(4H)-yl)-2-(4-(trifluoromethyl)thiazol-2-yl)ethanone] was tested, and the AC50 was over 5000 nM.
Compound `O=C(c1ocnc1C(F)(F)F)N1CCc2[nH]cnc2[C@H]1c1cc2ccccn2n1` [Example 610, (S)-(4-(pyrazolo[1,5-a]pyridin-2-yl)-6,7-dihydro-1H-imidazo[4,5-c]pyridin-5(4H)-yl)(4-(trifluoromethyl)oxazol-5-yl)methanone] has an AC50 of under 500 nM.
With `O=C(c1ocnc1C(F)(F)F)N1CCc2[nH]cnc2[C@@H]1c1cc2ccccn2n1` [Example 611, (R)-(4-(pyrazolo[1,5-a]pyridin-2-yl)-6,7-dihydro-1H-imidazo[4,5-c]pyridin-5(4H)-yl)(4-(trifluoromethyl)oxazol-5-yl)methanone] the AC50 was 1000 to 5000 nM.
`CC(F)(F)c1ncc(C(=O)N2CCc3[nH]cnc3[C@H]2c2cc3ccccn3n2)s1` [Example 612, (S)-(2-(1,1-difluoroethyl)thiazol-5-yl)(4-(pyrazolo[1,5-a]pyridin-2-yl)-6,7-dihydro-1H-imidazo[4,5-c]pyridin-5(4H)-yl)methanone] showed an AC50 of under 500 nM.
Work on `O=C(CC1CC1)N1CCc2[nH]cnc2[C@H]1c1cc2ccccn2n1` [Example 614, (S)-2-cyclopropyl-1-(4-(pyrazolo[1,5-a]pyridin-2-yl)-6,7-dihydro-1H-imidazo[4,5-c]pyridin-5(4H)-yl)ethanone] yielded an AC50 of under 500 nM.
`O=C(CC1CC1)N1CCc2[nH]cnc2[C@@H]1c1cc2ccccn2n1` [Example 615, (R)-2-cyclopropyl-1-(4-(pyrazolo[1,5-a]pyridin-2-yl)-6,7-dihydro-1H-imidazo[4,5-c]pyridin-5(4H)-yl)ethanone] showed an AC50 of 1000 to 5000 nM.
Work on `O=C(c1nnc(-c2ncccc2F)o1)N1CCc2[nH]cnc2[C@H]1c1cc2ccccn2n1` [Example 616, (S)-(5-(3-fluoropyridin-2-yl)-1,3,4-oxadiazol-2-yl)(4-(pyrazolo[1,5-a]pyridin-2-yl)-6,7-dihydro-1H-imidazo[4,5-c)pyridin-5(4H)-yl)methanone] yielded an AC50 of 500 to 1000 nM.
For `O=C(c1nnc(-c2ncccc2F)o1)N1CCc2[nH]cnc2[C@@H]1c1cc2ccccn2n1` [Example 617, (R)-(5-(3-fluoropyridin-2-yl)-1,3,4-oxadiazol-2-yl)(4-(pyrazolo[1,5-a]pyridin-2-yl)-6,7-dihydro-1H-imidazo[4,5-c]pyridin-5(4H)-yl)methanone], the AC50 was over 5000 nM.
`O=C(c1ocnc1C1CC1)N1CCc2[nH]cnc2[C@H]1c1cc2ccccn2n1` [Example 618, (S)-(4-cyclopropyloxazol-5-yl)(4-(pyrazolo[1,5-a]pyridin-2-yl)-6,7-dihydro-1H-imidazo[4,5-c]pyridin-5(4H)-yl)methanone] showed an AC50 of under 500 nM.
For `O=C(c1ocnc1C1CC1)N1CCc2[nH]cnc2[C@@H]1c1cc2ccccn2n1` [Example 619, (R)-(4-cyclopropyloxazol-5-yl)(4-(pyrazolo[1,5-a]pyridin-2-yl)-6,7-dihydro-1H-imidazo[4,5-c]pyridin-5(4H)-yl)methanone], the AC50 was 1000 to 5000 nM.
Compound `O=C(c1nnc(C2CC2)o1)N1CCc2[nH]cnc2[C@H]1c1cc2ccccn2n1` [Example 620, (S)-(5-cyclopropyl-1,3,4-oxadiazol-2-yl)(4-(pyrazolo[1,5-a]pyridin-2-yl)-6,7-dihydro-1H-imidazo[4,5-c]pyridin-5(4H)-yl)methanone] has an AC50 of 1000 to 5000 nM.
In the case of `O=C(c1nnc(C2CC2)o1)N1CCc2[nH]cnc2[C@@H]1c1cc2ccccn2n1` [Example 621, (R)-(5-cyclopropyl-1,3,4-oxadiazol-2-yl)(4-(pyrazolo[1,5-a]pyridin-2-yl)-6,7-dihydro-1H-imidazo[4,5-c]pyridin-5(4H)-yl)methanone], the AC50 is reported as over 5000 nM.
Compound `O=C(c1oc(-c2ccccn2)nc1C1CC1)N1CCc2[nH]cnc2[C@@H]1c1cc2ccccn2n1` [Example 623, (R)-(4-cyclopropyl-2-(pyridin-2-yl)oxazol-5-yl)(4-(pyrazolo[1,5-a]pyridin-2-yl)-6,7-dihydro-1H-imidazo[4,5-c]pyridin-5(4H)-yl)methanone] has an AC50 of 1000 to 5000 nM.
`CC(C)(O)c1nc(C2CC2)c(C(=O)N2CCc3[nH]cnc3[C@H]2c2cc3ccccn3n2)o1` [Example 624, (S)-(4-cyclopropyl-2-(2-hydroxypropan-2-yl)oxazol-5-yl)(4-(pyrazolo[1,5-a]pyridin-2-yl)-6,7-dihydro-1H-imidazo[4,5-c]pyridin-5(4H)-yl)methanone] was tested, and the AC50 was 1000 to 5000 nM.
`CC(C)(O)c1nc(C2CC2)c(C(=O)N2CCc3[nH]cnc3[C@@H]2c2cc3ccccn3n2)o1` [Example 625, (R)-(4-cyclopropyl-2-(2-hydroxypropan-2-yl)oxazol-5-yl)(4-(pyrazolo[1,5-a]pyridin-2-yl)-6,7-dihydro-1H-imidazo[4,5-c]pyridin-5(4H)-yl)methanone] was tested, and the AC50 was 1000 to 5000 nM.
For `Cn1cc(-c2nnc(C(=O)N3CCc4[nH]cnc4[C@H]3c3cc4ccccn4n3)o2)cn1` [Example 626, (S)-(5-(1-methyl-1H-pyrazol-4-yl)-1,3,4-oxadiazol-2-yl)(4-(pyrazolo[1,5-a]pyridin-2-yl)-6,7-dihydro-1H-imidazo[4,5-c]pyridin-5(4H)-yl)methanone], the AC50 was 1000 to 5000 nM.
`CC(C)(O)c1nc(C(F)(F)F)c(C(=O)N2CCc3[nH]cnc3[C@H]2c2cc3ccccn3n2)o1` [Example 628, (S)-(2-(2-hydroxypropan-2-yl)-4-(trifluoromethyl)oxazol-5-yl)(4-(pyrazolo[1,5-a]pyridin-2-yl)-6,7-dihydro-1H-imidazo[4,5-c)pyridin-5(4H)-yl)methanone] gave an AC50 of under 500 nM.
In the case of `CC(C)(O)c1nc(C(F)(F)F)c(C(=O)N2CCc3[nH]cnc3[C@@H]2c2cc3ccccn3n2)o1` [Example 629, (R)-(2-(2-hydroxypropan-2-yl)-4-(trifluoromethyl)oxazol-5-yl)(4-(pyrazolo[1,5-a]pyridin-2-yl)-6,7-dihydro-1H-imidazo[4,5-c]pyridin-5(4H)-yl)methanone], the AC50 is reported as 1000 to 5000 nM.
Compound `O=C(c1ocnc1C(F)F)N1CCc2[nH]cnc2[C@H]1c1cc2ccccn2n1` [Example 630, (S)-(4-(difluoromethyl)oxazol-5-yl)(4-(pyrazolo[1,5-a]pyridin-2-yl)-6,7-dihydro-1H-imidazo[4,5-c]pyridin-5(4H)-yl)methanone] has an AC50 of under 500 nM.
For `O=C(c1ocnc1C(F)F)N1CCc2[nH]cnc2[C@@H]1c1cc2ccccn2n1` [Example 631, (R)-(4-(difluoromethyl)oxazol-5-yl)(4-(pyrazolo[1,5-a]pyridin-2-yl)-6,7-dihydro-1H-imidazo[4,5-c]pyridin-5(4H)-yl)methanone], the AC50 was 1000 to 5000 nM.
